Data taken from PMC11137104, “Small molecule induced STING degradation facilitated by the HECT ligase HERC4” (Nature Communications, 2024).

Experiments:
Test in all cases: NanoBiT complementation of STING and HERC4 in HEK293T; also co-immunoprecipitation
Assay type in all cases: cell-based
[1] = target: T1, STING^141-341-LgBiT : SmBiT-HERC4 (Homo sapiens, UniProt Q5GLZ8+Q86WV6); settings: compound-induced STING-HERC4 association; dose-response, 16 h; binding site and direct binary binding not determined
T1 construct: gene STING1; STING cytosolic domain with connector helix (141-341), C-terminal LgBiT; full-length HERC4, N-terminal SmBiT; transient in HEK293T

[2] = target: T2, STING^141-341-LgBiT : SmBiT-HERC4 (Homo sapiens, UniProt Q5GLZ8+Q86WV6, Q86WV6:K150R); settings: compound-induced STING-HERC4 association; dose-response, 16 h; binding site and direct binary binding not determined
T2 construct: gene STING1; STING cytosolic domain with connector helix (141-341), C-terminal LgBiT; full-length HERC4, N-terminal SmBiT; transient in HEK293T

[3] = target: T3, STING^155-341-LgBiT : SmBiT-HERC4 (Homo sapiens, UniProt Q5GLZ8+Q86WV6); settings: compound-induced STING-HERC4 association; 16 h; binding site and direct binary binding not determined
T3 construct: gene STING1; full-length HERC4, N-terminal SmBiT; transient in HEK293T
T3 sequence (Q86WV6 155-341): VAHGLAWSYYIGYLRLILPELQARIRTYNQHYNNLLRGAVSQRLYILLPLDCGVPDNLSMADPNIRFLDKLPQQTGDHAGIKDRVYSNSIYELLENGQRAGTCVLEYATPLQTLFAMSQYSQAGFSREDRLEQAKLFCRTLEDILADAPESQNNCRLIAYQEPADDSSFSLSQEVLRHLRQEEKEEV
T3 sequence (Q5GLZ8 whole entry): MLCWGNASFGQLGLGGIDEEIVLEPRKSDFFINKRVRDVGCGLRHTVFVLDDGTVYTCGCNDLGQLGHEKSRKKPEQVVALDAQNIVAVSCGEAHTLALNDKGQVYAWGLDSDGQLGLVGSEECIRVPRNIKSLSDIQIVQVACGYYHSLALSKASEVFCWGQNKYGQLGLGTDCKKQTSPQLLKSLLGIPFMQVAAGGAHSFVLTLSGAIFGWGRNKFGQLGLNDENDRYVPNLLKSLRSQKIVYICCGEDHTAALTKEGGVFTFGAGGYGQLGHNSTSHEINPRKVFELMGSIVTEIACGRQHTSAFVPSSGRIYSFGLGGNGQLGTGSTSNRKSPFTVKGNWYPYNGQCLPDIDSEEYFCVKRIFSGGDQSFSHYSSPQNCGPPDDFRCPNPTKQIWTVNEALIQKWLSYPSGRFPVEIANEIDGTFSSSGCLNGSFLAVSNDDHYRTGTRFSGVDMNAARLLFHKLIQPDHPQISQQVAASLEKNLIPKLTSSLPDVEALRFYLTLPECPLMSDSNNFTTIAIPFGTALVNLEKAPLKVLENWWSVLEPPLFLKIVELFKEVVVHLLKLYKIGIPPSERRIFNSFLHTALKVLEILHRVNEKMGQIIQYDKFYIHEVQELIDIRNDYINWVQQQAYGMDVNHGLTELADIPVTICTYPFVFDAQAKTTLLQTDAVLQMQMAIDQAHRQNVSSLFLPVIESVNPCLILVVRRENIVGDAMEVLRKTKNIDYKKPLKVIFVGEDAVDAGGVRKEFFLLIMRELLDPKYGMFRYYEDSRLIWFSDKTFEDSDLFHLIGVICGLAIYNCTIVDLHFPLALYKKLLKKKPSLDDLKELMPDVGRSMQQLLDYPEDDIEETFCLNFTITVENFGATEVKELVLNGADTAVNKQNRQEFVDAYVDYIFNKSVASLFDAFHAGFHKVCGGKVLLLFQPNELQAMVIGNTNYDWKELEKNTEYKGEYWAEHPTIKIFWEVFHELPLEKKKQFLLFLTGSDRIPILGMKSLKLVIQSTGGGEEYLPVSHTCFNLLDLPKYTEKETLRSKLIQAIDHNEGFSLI

T2 sequence (Q86WV6 141-341 K150R): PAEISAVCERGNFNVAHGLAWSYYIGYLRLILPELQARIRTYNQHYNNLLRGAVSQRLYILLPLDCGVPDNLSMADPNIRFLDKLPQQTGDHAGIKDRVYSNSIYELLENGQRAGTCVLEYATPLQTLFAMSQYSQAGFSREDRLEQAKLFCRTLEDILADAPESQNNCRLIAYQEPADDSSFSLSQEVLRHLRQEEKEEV
T2 sequence (Q5GLZ8 whole entry, the tested form may be a part): as the sequence (Q5GLZ8 whole entry) above
T1 sequence (Q86WV6 141-341): as the sequence (Q86WV6 141-341 K150R) above, with R10K counted along it
T1 sequence (Q5GLZ8 whole entry, the tested form may be a part): as the sequence (Q5GLZ8 whole entry) above

## O=S(=O)(Nc1ccc(-c2cccnc2)c2cccnc12)c1ccc(C(F)(F)F)cc1 [AK59, AK59-51TB]
[1]
  NanoBiT complementation of STING and HERC4 in HEK293T; also co-immunoprecipitati: only AK59, but not the inactive analog QK50, is capable of inducing an interaction
[2]
  NanoBiT complementation of STING and HERC4 in HEK293T; also co-immunoprecipitati: all constructs showed a luminescence signal indicating a direct interaction with HERC4 upon AK59
[3]
  NanoBiT complementation of STING and HERC4 in HEK293T; also co-immunoprecipitati: all constructs showed a luminescence signal indicating a direct interaction with HERC4 upon AK59
